Reference: patent publication US9695155B2, “Herbicidal substituted pyrimidinyloxy benzene compounds” (E. I. DU PONT DE NEMOURS AND COMPANY, priority 2013, dated 2017)

Legend:
johnsongrass = experiment: Test C preemergence; format: in vivo, Sorghum halepense; conditions: Sorghum halepense, pre-emergence, preemergence, read-out: Johnsongrass plant response rating
Outline: (§1)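 Preemergence: seeds sown in a loam soil–sand blend and sprayed with test chemical in a non-phytotoxic solvent mixture containing surfactant. Postemergence: plants at 2 to 18 cm (1- to 4-leaf stage) in peat-based medium, treated with the same formulation. Greenhouse 13 to 15 days, then visual rating 0 (no effect) to 100 (complete control).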

giant foxtail = experiment: Test C preemergence; format: in vivo, Setaria faberii; conditions: Setaria faberi, pre-emergence
Outline: as §1

blackgrass [1] = experiment: Test C preemergence; format: in vivo, Alopecurus myosuroides; conditions: Alopecurus myosuroides, pre-emergence
Outline: as §1

lambsquarters = experiment: Test C preemergence; format: in vivo, Chenopodium album; conditions: Chenopodium album, pre-emergence, preemergence, read-out: Lambsquarters plant response rating
Outline: as §1

oilseed rape = experiment: Test C preemergence; format: in vivo, Brassica napus; conditions: Brassica napus, pre-emergence, preemergence, read-out: Oilseed Rape plant response rating
Outline: as §1

large (Lg) crabgrass = experiment: Test C preemergence; format: in vivo, Digitaria sanguinalis; conditions: Digitaria sanguinalis, pre-emergence
Outline: as §1

pigweed = experiment: Test C preemergence; format: in vivo, Amaranthus retroflexus; conditions: Amaranthus retroflexus, pre-emergence, preemergence, read-out: Pigweed plant response rating
Outline: as §1

Italian ryegrass [2] = experiment: Test A postemergence; format: in vivo, Lolium multiflorum
Outline: (§2)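 Scoring: eye-based comparison with untreated controls, 0 for no effect through 100 for complete control, at about day 10. Treatments: directed soil spray preemergence; foliar spray postemergence on 2–10 cm plants at the one- to two-leaf stage. Medium: loam soil with sand.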

galium [3] = experiment: Test A postemergence; format: in vivo, Galium aparine
Outline: as §2

ragweed [4] = experiment: Test C preemergence; format: in vivo, Ambrosia elatior; conditions: Ambrosia artemisiifolia, pre-emergence, preemergence, read-out: Ragweed plant response rating
Outline: as §1

blackgrass [5] = experiment: Test A postemergence; format: in vivo, Alopecurus myosuroides
Outline: as §2

barnyardgrass = experiment: Test C preemergence; format: in vivo, Echinochloa crus-galli; conditions: Echinochloa crus-galli, pre-emergence
Outline: as §1

Italian ryegrass [6] = experiment: Test A preemergence; format: in vivo, Lolium multiflorum; conditions: 0 to 100 scale where 0 is no effect and 100 is complete control
Outline: as §2

corn = experiment: Test C preemergence; format: in vivo, Zea mays; conditions: Zea mays, pre-emergence
Outline: as §1

galium [7] = experiment: Test C preemergence; format: in vivo, Galium aparine; conditions: Galium, pre-emergence
Outline: as §1

ragweed [8] = experiment: Test A preemergence; format: in vivo, Ambrosia elatior; conditions: 0 to 100 scale where 0 is no effect and 100 is complete control
Outline: as §2

waterhemp = experiment: Test C preemergence; format: in vivo, Amaranthus rudis; conditions: Amaranthus tuberculatus, pre-emergence, preemergence, read-out: Waterhemp plant response rating
Outline: as §1

yellow nutsedge = experiment: Test C preemergence; format: in vivo, Cyperus esculentus; conditions: Cyperus, pre-emergence, preemergence, scale 0 (no effect) to 100 (complete control), read-out: Nutsedge, Yellow plant response rating
Outline: as §1

[9] = 16 g ai/ha, scale 0 to 100 (0 no effect, 100 complete control)
[10] = 62 g ai/ha, scale 0 (no effect) to 100 (complete control)
[11] = 125 g ai/ha, scale 0 (no effect) to 100 (complete control)
[12] = 31 g ai/ha, 0 to 100 scale, 0 no effect, 100 complete control
[13] = 125 g ai/ha, 0 to 100 scale where 0 is no effect and 100 is complete control
[14] = 31 g ai/ha, visual, approximately 10 days

Molecule `Fc1cccc(Oc2ncc(Cl)cn2)c1-n1cc(C(F)F)nn1` [Compound 141, 5-chloro-2-[2-[4-(difluoromethyl)-1H-1,2,3-triazol-1-yl]-3-fluorophenoxy]pyrimidine] has a pest or weed control at 16 g/ha (johnsongrass; [9]) of 30%, a pest or weed control at 62 g/ha (johnsongrass; [10]) of 100% and a pest or weed control at 125 g/ha (johnsongrass; [11]) of 100%. The pest or weed control at 16 g/ha (giant foxtail; 16 g ai/ha, preemergence, scale 0 to 100 (0 no effect, 100 complete control), read-out: Foxtail, Giant plant response rating) was 90%, the pest or weed control at 62 g/ha (giant foxtail; 62 g ai/ha, preemergence, scale 0 (no effect) to 100 (complete control), read-out: Foxtail, Giant plant response rating) was 100% and the pest or weed control at 125 g/ha (giant foxtail; 125 g ai/ha, preemergence, scale 0 (no effect) to 100 (complete control), read-out: Foxtail, Giant plant response rating) was 100%. The pest or weed control at 31 g/ha (giant foxtail; Preemergence, 31 g ai/ha, scale 0 to 100, 0 no effect, 100 complete control, read-out: Plant response rating, Foxtail, Giant) was 100%, the pest or weed control at 16 g/ha (blackgrass [1]; 16 g ai/ha, preemergence, scale 0 to 100 (0 no effect, 100 complete control), read-out: Blackgrass plant response rating) was 80% and the pest or weed control at 62 g/ha (blackgrass [1]; 62 g ai/ha, preemergence, scale 0 (no effect) to 100 (complete control), read-out: Blackgrass plant response rating) was 95%. The pest or weed control at 125 g/ha (blackgrass [1]; 125 g ai/ha, preemergence, scale 0 (no effect) to 100 (complete control), read-out: Blackgrass plant response rating) was 95%, the pest or weed control at 31 g/ha (blackgrass [1]; Preemergence, 31 g ai/ha, scale 0 to 100, 0 no effect, 100 complete control, read-out: Plant response rating, Blackgrass) was 95% and the pest or weed control at 16 g/ha (lambsquarters; [9]) was 85%. For the same molecule, the pest or weed control at 62 g/ha (lambsquarters; [10]) was 100%, the pest or weed control at 125 g/ha (lambsquarters; [11]) was 100% and the plant injury at 16 g/ha (oilseed rape; [9]) was 100%. It also gave a plant injury at 62 g/ha (oilseed rape; [10]) of 100%, a plant injury at 125 g/ha (oilseed rape; [11]) of 100% and a pest or weed control at 16 g/ha (large (Lg) crabgrass; 16 g ai/ha, preemergence, scale 0 to 100 (0 no effect, 100 complete control), read-out: Crabgrass, Large plant response rating) of 100%. For the same molecule, the pest or weed control at 62 g/ha (large (Lg) crabgrass; 62 g ai/ha, preemergence, scale 0 (no effect) to 100 (complete control), read-out: Crabgrass, Large plant response rating) was 100%, the pest or weed control at 125 g/ha (large (Lg) crabgrass; 125 g ai/ha, preemergence, scale 0 (no effect) to 100 (complete control), read-out: Crabgrass, Large plant response rating) was 100% and the pest or weed control at 31 g/ha (large (Lg) crabgrass; Preemergence, 31 g ai/ha, scale 0 to 100, 0 no effect, 100 complete control, read-out: Plant response rating, Crabgrass, Large) was 100%. It also gave a pest or weed control at 16 g/ha (pigweed; [9]) of 100%, a pest or weed control at 62 g/ha (pigweed; [10]) of 100% and a pest or weed control at 125 g/ha (pigweed; [11]) of 100%. For the same molecule, the “Plant response rating, Ryegrass, Italian” value (Italian ryegrass [2]; [12]) was 60, the “Ryegrass, Italian plant response rating” value (Italian ryegrass [2]; [13]) was 80 and the “Plant response rating, Galium” value (galium [3]; [12]) was 100. For the same molecule, the “Galium plant response rating” value (galium [3]; [13]) was 100, the pest or weed control at 16 g/ha (ragweed [4]; [9]) was 85% and the pest or weed control at 62 g/ha (ragweed [4]; [10]) was 100%. The pest or weed control at 125 g/ha (ragweed [4]; [11]) was 100%, the “Plant response rating, Blackgrass” value (blackgrass [5]; [12]) was 90 and the “Blackgrass plant response rating” value (blackgrass [5]; [13]) was 100. The pest or weed control at 16 g/ha (barnyardgrass; 16 g ai/ha, preemergence, scale 0 to 100 (0 no effect, 100 complete control), read-out: Barnyardgrass plant response rating) was 80%, the pest or weed control at 62 g/ha (barnyardgrass; 62 g ai/ha, preemergence, scale 0 (no effect) to 100 (complete control), read-out: Barnyardgrass plant response rating) was 100% and the pest or weed control at 125 g/ha (barnyardgrass; 125 g ai/ha, preemergence, scale 0 (no effect) to 100 (complete control), read-out: Barnyardgrass plant response rating) was 100%. The pest or weed control at 31 g/ha (barnyardgrass; Preemergence, 31 g ai/ha, scale 0 to 100, 0 no effect, 100 complete control, read-out: Plant response rating, Barnyardgrass) was 100%, the “Plant response rating, Ryegrass, Italian” value (Italian ryegrass [6]; [14]) was 30 and the “Plant response rating, Ryegrass, Italian” value (Italian ryegrass [6]; 125 g ai/ha) was 80. The plant injury at 16 g/ha (corn; 16 g ai/ha, preemergence, scale 0 to 100 (0 no effect, 100 complete control), read-out: Corn plant response rating) was 5%, the plant injury at 62 g/ha (corn; 62 g ai/ha, preemergence, scale 0 (no effect) to 100 (complete control), read-out: Corn plant response rating) was 80% and the plant injury at 125 g/ha (corn; 125 g ai/ha, preemergence, scale 0 (no effect) to 100 (complete control), read-out: Corn plant response rating) was 90%. The Corn plant response rating (crop injury, 0 = no effect, 100 = complete kill) at 31 g/ha (corn; Preemergence, 31 g ai/ha, scale 0 to 100, 0 no effect, 100 complete control) was 20%, the pest or weed control at 16 g/ha (galium [7]; 16 g ai/ha, preemergence, scale 0 to 100 (0 no effect, 100 complete control), read-out: Galium plant response rating) was 98% and the pest or weed control at 62 g/ha (galium [7]; 62 g ai/ha, preemergence, scale 0 (no effect) to 100 (complete control), read-out: Galium plant response rating) was 100%. The pest or weed control at 125 g/ha (galium [7]; 125 g ai/ha, preemergence, scale 0 (no effect) to 100 (complete control), read-out: Galium plant response rating) was 100%, the pest or weed control at 31 g/ha (galium [7]; Preemergence, 31 g ai/ha, scale 0 to 100, 0 no effect, 100 complete control, read-out: Plant response rating, Galium) was 98% and the “Plant response rating, Ragweed” value (ragweed [8]; [14]) was 90. For the same molecule, the “Plant response rating, Ragweed” value (ragweed [8]; 125 g ai/ha) was 100, the pest or weed control at 16 g/ha (waterhemp; [9]) was 100% and the pest or weed control at 62 g/ha (waterhemp; [10]) was 100%. It also gave a pest or weed control at 125 g/ha (waterhemp; [11]) of 100%, a pest or weed control at 62 g/ha (yellow nutsedge; 62 g ai/ha) of 70% and a pest or weed control at 125 g/ha (yellow nutsedge; 125 g ai/ha) of 95%.
